Data: US11858941B2, “Heterocyclic and heteroaryl compounds for treating Huntington's disease” (PTC THERAPEUTICS, INC., priority 2018, dated 2024)

Tested on: Endogenous Huntingtin Protein
Experiment: Endogenous Huntingtin Protein Assay (Meso Scale Discovery ELISA-based electrochemiluminescence)
Assay type: cell-based
Conditions: MSD plates coated with MW1 (expanded polyglutamine) or MAB2166 capture antibody; lysates
How it was run: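 MSD electrochemiluminescence sandwich ELISA: MW1 (expanded polyQ) or MAB2166 capture antibody at 1 μg/mL, samples incubated overnight at 4° C. Detection with rabbit monoclonal #5656S then SULFO-TAG anti-rabbit antibody, each 0.25 μg/mL for 1 h at room temperature.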

Row | IC50 [nM] | SMILES
1 | 1000 to 3000 | CC1(C)CC(n2nnc3cc(-c4ccc(-c5ccnc(OC(F)F)c5)cc4O)nnc32)CC(C)(C)N1 [Cpd 114, 5-[2-(difluoromethoxy)pyridin-4-yl]-2-[3-(2,2,6,6-tetramethylpiperidin-4-yl)-3H-[1,2,3]triazolo[4,5-c]pyridazin-6-yl]phenol]
2 | 100 to 500 | CC1(C)CC(n2nnc3cc(-c4ccc(-c5c[nH]cn5)cc4O)nnc32)CC(C)(C)N1 [Cpd 115, 5-(1H-imidazol-4-yl)-2-[3-(2,2,6,6-tetramethylpiperidin-4-yl)-3H-[1,2,3]triazolo[4,5-c]pyridazin-6-yl]phenol]
3 | ≤ 100 | CC1(C)CC(n2nnc3cc(-c4ccc(-c5nncs5)cc4O)nnc32)CC(C)(C)N1 [Cpd 116, 2-[3-(2,2,6,6-tetramethylpiperidin-4-yl)-3H-[1,2,3]triazolo[4,5-c]pyridazin-6-yl]-5-(1,3,4-thiadiazol-2-yl)phenol]
4 | 3000 to 9000 | CC1(C)CC(n2nnc3cc(-c4ccc(-c5cn[nH]c5)c5nn[nH]c45)nnc32)CC(C)(C)N1 [Cpd 117, 6-[4-(1H-pyrazol-4-yl)-1H-benzotriazol-7-yl]-3-(2,2,6,6-tetramethylpiperidin-4-yl)-3H-[1,2,3]triazolo[4,5-c]pyridazine]
5 | 1000 to 3000 | CC1(C)CC(n2nnc3cc(-c4ccc(-c5ccnc6[nH]ccc56)cc4O)nnc32)CC(C)(C)N1 [Cpd 118, 5-(1H-pyrrolo[2,3-b]pyridin-4-yl)-2-[3-(2,2,6,6-tetramethylpiperidin-4-yl)-3H-[1,2,3]triazolo[4,5-c]pyridazin-6-yl]phenol]
6 | 100 to 500 | COc1nccc(-c2ccc(-c3cc4nnn(C5CC(C)(C)NC(C)(C)C5)c4nn3)c(O)c2)n1 [Cpd 119, 5-(2-methoxypyrimidin-4-yl)-2-[3-(2,2,6,6-tetramethylpiperidin-4-yl)-3H-[1,2,3]triazolo[4,5-c]pyridazin-6-yl]phenol]
7 | 100 to 500 | CC1(C)CC(n2nnc3cc(-c4ccc(-c5cnoc5)cc4O)nnc32)CC(C)(C)N1 [Cpd 120, 5-(1,2-oxazol-4-yl)-2-[3-(2,2,6,6-tetramethylpiperidin-4-yl)-3H-[1,2,3]triazolo[4,5-c]pyridazin-6-yl]phenol]
8 | ≤ 100 | Cn1ncc(-c2ccc(-c3cc4nnn(C5CC(C)(C)NC(C)(C)C5)c4nn3)c(O)c2)c1F [Cpd 121, 5-(5-fluoro-1-methyl-1H-pyrazol-4-yl)-2-[3-(2,2,6,6-tetramethylpiperidin-4-yl)-3H-[1,2,3]triazolo[4,5-c]pyridazin-6-yl]phenol]
9 | 1000 to 3000 | CCn1ncc(-c2ccc(-c3cc4nnn(C5CC(C)(C)NC(C)(C)C5)c4nn3)c(O)c2)c1F [Cpd 122, 5-(1-ethyl-5-fluoro-1H-pyrazol-4-yl)-2-[3-(2,2,6,6-tetramethylpiperidin-4-yl)-3H-[1,2,3]triazolo[4,5-c]pyridazin-6-yl]phenol]
10 | 3000 to 9000 | CCOc1cc(-c2ccc(-c3cc4nnn(C5CC(C)(C)NC(C)(C)C5)c4nn3)c(O)c2)ccn1 [Cpd 123, 5-(2-ethoxypyridin-4-yl)-2-[3-(2,2,6,6-tetramethylpiperidin-4-yl)-3H-[1,2,3]triazolo[4,5-c]pyridazin-6-yl]phenol]
11 | ≤ 100 | CCOc1cc(-c2ccc(-c3cc4nnn(C5CC(C)(C)NC(C)(C)C5)c4nn3)c(O)c2)ncn1 [Cpd 124, 5-(6-ethoxypyrimidin-4-yl)-2-[3-(2,2,6,6-tetramethylpiperidin-4-yl)-3H-[1,2,3]triazolo[4,5-c]pyridazin-6-yl]phenol]
12 | 100 to 500 | CC1(C)CC(n2nnc3cc(-c4ccc(-c5ccn6nncc6c5)cc4O)nnc32)CC(C)(C)N1 [Cpd 125, 2-[3-(2,2,6,6-tetramethylpiperidin-4-yl)-3H-[1,2,3]triazolo[4,5-c]pyridazin-6-yl]-5-([1,2,3]triazolo[1,5-a]pyridin-5-yl)phenol]
13 | 100 to 500 | CC1(C)CC(n2nnc3cc(-c4ccc(-c5ccn6ncnc6c5)cc4O)nnc32)CC(C)(C)N1 [Cpd 126, 2-[3-(2,2,6,6-tetramethylpiperidin-4-yl)-3H-[1,2,3]triazolo[4,5-c]pyridazin-6-yl]-5-([1,2,4]triazolo[1,5-a]pyridin-7-yl)phenol]
14 | ≤ 100 | Cn1cc(-c2ccc(-c3cc4nnn(C5CC(C)(C)NC(C)(C)C5)c4nn3)c(O)c2)c(Cl)n1 [Cpd 127, 5-(3-chloro-1-methyl-1H-pyrazol-4-yl)-2-[3-(2,2,6,6-tetramethylpiperidin-4-yl)-3H-[1,2,3]triazolo[4,5-c]pyridazin-6-yl]phenol]
15 | ≤ 100 | CC1(C)CC(n2nnc3cc(-c4ccc(-c5cc(=O)[nH]cn5)cc4O)nnc32)CC(C)(C)N1 [Cpd 128, 6-{3-hydroxy-4-[3-(2,2,6,6-tetramethylpiperidin-4-yl)-3H-[1,2,3]triazolo[4,5-c]pyridazin-6-yl]phenyl}pyrimidin-4(3H)-one]
16 | ≤ 100 | CC1(C)CC(n2nnc3cc(-c4ccc(-c5c[nH]nc5Cl)cc4O)nnc32)CC(C)(C)N1 [Cpd 129, 5-(3-chloro-1H-pyrazol-4-yl)-2-[3-(2,2,6,6-tetramethylpiperidin-4-yl)-3H-[1,2,3]triazolo[4,5-c]pyridazin-6-yl]phenol]
17 | ≤ 100 | Cn1cc(-c2ccc(-c3cc4nnn(C5CC(C)(C)NC(C)(C)C5)c4nn3)c(O)c2)c(F)n1 [Cpd 130, 5-(3-fluoro-1-methyl-1H-pyrazol-4-yl)-2-[3-(2,2,6,6-tetramethylpiperidin-4-yl)-3H-[1,2,3]triazolo[4,5-c]pyridazin-6-yl]phenol]
18 | ≤ 100 | COc1n[nH]cc1-c1ccc(-c2cc3nnn(C4CC(C)(C)NC(C)(C)C4)c3nn2)c(O)c1 [Cpd 131, 5-(3-methoxy-1H-pyrazol-4-yl)-2-[3-(2,2,6,6-tetramethylpiperidin-4-yl)-3H-[1,2,3]triazolo[4,5-c]pyridazin-6-yl]phenol]
19 | 500 to 1000 | Cn1cc(-c2ccc(-c3cc4nnn(C5CC(C)(C)NC(C)(C)C5)c4nn3)c(O)c2)c(C#N)n1 [Cpd 132, 4-{3-hydroxy-4-[3-(2,2,6,6-tetramethylpiperidin-4-yl)-3H-[1,2,3]triazolo[4,5-c]pyridazin-6-yl]phenyl}-1-methyl-1H-pyrazole-3-carbonitrile]
20 | 100 to 500 | Cc1cnc(-c2ccc(-c3cc4nnn(C5CC(C)(C)NC(C)(C)C5)c4nn3)c(O)c2)s1 [Cpd 133, 5-(5-methyl-1,3-thiazol-2-yl)-2-[3-(2,2,6,6-tetramethylpiperidin-4-yl)-3H-[1,2,3]triazolo[4,5-c]pyridazin-6-yl]phenol]
21 | ≤ 100 | CC1(C)CC(n2nnc3cc(-c4ccc(-c5ncns5)cc4O)nnc32)CC(C)(C)N1 [Cpd 134, 2-[3-(2,2,6,6-tetramethylpiperidin-4-yl)-3H-[1,2,3]triazolo[4,5-c]pyridazin-6-yl]-5-(1,2,4-thiadiazol-5-yl)phenol]
22 | ≤ 100 | CC1(C)CC(n2nnc3cc(-c4ccc(-c5cc(F)c6nn[nH]c6c5)cc4O)nnc32)CC(C)(C)N1 [Cpd 135, 5-(4-fluoro-1H-benzotriazol-6-yl)-2-[3-(2,2,6,6-tetramethylpiperidin-4-yl)-3H-[1,2,3]triazolo[4,5-c]pyridazin-6-yl]phenol]
23 | ≤ 100 | CC1(C)CC(n2ccc3cc(-c4ncc(-c5cn[nH]c5)cc4O)nnc32)CC(C)(C)N1 [Cpd 136, 5-(1H-pyrazol-4-yl)-2-[7-(2,2,6,6-tetramethylpiperidin-4-yl)-7H-pyrrolo[2,3-c]pyridazin-3-yl]pyridin-3-ol]
